In patent publication US12064507B2, “Composition and method for oral treatment of leukemia” (Provectus Pharmatech, Inc., priority 2019, dated 2024):
Read-outs that look alike come from different tables or passages of the source. Where a SMILES comes first, the peptide text is derived from it. [ ]: non-standard residue; d: D form. The star is where a group is joined. Dolaproine = CO[C@@H]([C@@H]1CCCN1)[C@@H](C)C(=O)O; Dil = CC[C@H](C)[C@H](NC)[C@@H](CC(=O)O)OC; X1 = C[C@@H](N*)[C@@H](O)c1ccccc1; NMeV = CN[C@H](C(=O)O)C(C)C

How the values were obtained:
[1] = system: SEM cells (human ALL cells labelled with GFP); test: survival of CB17 SCID mice with SEM leukemia xenograft, oral treatment; format: in vivo; conditions: for survival / therapeutic activity in words: oral gavage twice weekly for two weeks, FIG. 1
Protocol: FIG. 1 is a graph showing survival of CB17 SCID mice from Charles River Laboratories International, Inc., treated with orally-administered rose bengal disodium. Exponentially-growing SEM cells (2.5×10^6 human ALL cells labelled with GFP) were injected intravenously into each animal and the establishment of tumors was monitored. After 4 weeks to permit the growth of the tumor, mice were randomized to three groups. Group 1 (n=9 control animals) received 100 μL of PBS given orally twice a week for two weeks. Group 2 (n=8 treatment Cohort I animals) received 25 μL of rose bengal disodium present at 10% w/v in 0.9% NaCl aqueous solution that was diluted in PBS to a final volume of 100 μL and given orally twice a week for 2 weeks. Group 3 (n=8 treatment Cohort II animals) received 12.5 μL of the above 10% w/v in 0.9% NaCl aqueous solution that was diluted in PBS to a final volume of 100 μL and administered orally twice a week for 2 weeks. […] Data are presented as Kaplan-Meier estimates.
Female C17 SCID mice from Charles River
The SEM cell line was initially established from a 5 year old female with B acute lymphoblastic leukemia. It carries the MLL-AFFF1 gene fusion and heterozygous for CDKN2A and TP53.
2.5×10^6 exponentially growing SEM cells [labelled with green fluorescent protein (GFP)] were injected intravenously into each animal and the establishment of tumors was monitored. After 4 weeks to permit the growth of the tumors, mice were randomized to three groups.
These animals received 100 μL of PBS given orally twice a week for two weeks.
These animals received 25 μL of PV-10® (10% rose bengal disodium w/v in 0.9 percent in aqueous saline) diluted in PBS to a final volume of 100 μL and given orally by gavage twice a week for 2 weeks.
These animals received 12.5 μL of PV-10® (as discussed above) diluted in PBS to a final volume of 100 μL and given orally by gavage twice a week for 2 weeks.
Data are presented in FIG. 1 as Kaplan-Meier estimates.

[2] = oral bioavailability, mass balance studies; format: in vivo; conditions: aqueous solution, estimated from mass balance studies
Protocol: Bioavailability of RB disodium administered in aqueous solution via the oral route appears to be limited based on mass balance studies conducted by the inventors, and can be estimated at 0.1-1 percent, corresponding to a daily systemic exposure of 0.2-2 mg/kg. Presuming this amount is distributed through the bloodstream, and that blood volume comprises approximately 10 percent of body weight, this equates to an estimated concentration of 2-20 μM RB in the blood.

[3] = oral bioavailability, radiolabel studies with 14C-RB; format: in vivo; conditions: 14C-RB in aqueous solution given orally to mice
Source text: The bioavailability of various HX compounds such as disodium rose bengal has not been well characterized. Studies commissioned by one of the assignees concluded that bioavailability of disodium rose bengal is less than (<) 1% based on radiolabel studies where ^14C-RB in aqueous solution was given orally to mice. In the stomach, with a pH value<4, an HX compound is likely to be in the lactone form.

[4] = solubility and behaviour of HX compound forms in aqueous media; format: physicochemical; conditions: solutions of disodium RB mixed in
Source text: The dibasic salt forms of the HX compounds exist in solution having a pH greater than approximately 5, whereas at pH values<5 the HX compounds spontaneously convert to their lactone form. […] Thus, optimizing formulation to properly compensate for the pH value of the GI tract is perhaps the most important parameter affecting bioavailability. For example, in the stomach, where pH value<4, dissolved HX compound is rapidly converted to the insoluble lactone form.
For example, the highly acidic gastric environment (pH 1.5-2 in the fasted state; pH 3-6 in the fed state) rises rapidly to about pH 6 in the duodenum and increases along the small intestine to pH 7.4 at the terminal ileum. The pH value in the cecum drops just below pH 6 and again rises in the colon reaching pH 6.7 at the rectum [Hua, Front Pharmacol 11:Article 524 (April 2020)].

[5] = system: Apc^Min colorectal tumor model; format: in vivo, mice
Protocol: 26, 2021. […] Presuming a daily drinking water consumption rate of approximately 2 mL/10 g body weight, this corresponds to consumption of approximately 2 mg RB/10 g (200 mg/kg).
Those Apc^min mice are understood to have thereby consumed approximately 8 mg/10 g/day=800 mg/kg/day. That amount is consistent with toxicology data showing such a dose is tolerated.

[6] = tolerated dose in clinical studies of PV-10; format: in vivo, human
Protocol: The classic intravenous (IV) diagnostic assay for liver function using RB was conducted giving 100 mg RB as a single IV dose. In clinical studies of PV-10® aqueous RB disodium solution, RB has been tolerated at 1500 mg delivered IV. The standard adult blood volume is approximately 5 L. Thus, to achieve 100 mg/L in the blood, an adult patient would need to receive approximately 500 mg of RB IV to achieve the IC50 value in the bloodstream.
In clinical studies of PV-10® aqueous RB disodium solution, RB has been tolerated at 1500 mg delivered IL.

[7] = clearance from circulation; cited from earlier work
[8] = fed ad libitum continuously for 2 years, C57BL6N mice; cited from earlier work
[9] = 112 mg bolus, 60 kg adult human, 1.9 mg/kg; cited from earlier work
[10] = cited from earlier work
[11] = system: solid tumors (e.g., melanoma, hepatocellular carcinoma, breast carcinoma); conditions: intralesional, intratumoral RB about 25-50 mg/g tumor tissue (25-50 mM); cited from earlier work
[12] = system: pediatric solid tumors (neuroblastoma and neuroepithelioma); conditions: in vitro contact for 96 hours; cited from earlier work
[13] = system: several cancer cell lines; conditions: cited from earlier work
[14] = nude mice; cited from earlier work
[15] = human, in vivo; cited from earlier work
[16] = symptomatic mice, 1 mg/mL ad libitum in drinking water

O=C([O-])c1c(Cl)c(Cl)c(Cl)c(Cl)c1-c1c2cc(I)c(=O)c(I)c-2oc2c(I)c([O-])c(I)cc12.[Na+].[Na+] [RB disodium, 4,5,6,7-tetrachloro-2′,4′,5′,7′-tetraiodofluorescein disodium]
survival of mice treated with lesser amounts ([1]; lesser amounts of HX compound (Cohort II, 12.5 μL PV-10), compared with the 62.5% group): much poorer survival rates | treated leukemic mice that survived for 120 days ([1]; oral gavage twice a week for 2 weeks, higher-dose group (Cohort I, 25 μL PV-10)): 62.5% | survival / therapeutic activity in words ([1]; two treatment groups): dose-dependent survival | bioavailability via the oral route [2]: 0.1-1% | bioavailability [3]: < 1% | behaviour in water solution having the pH value of the human stomach [4]: rapid clouding of the admixture and clumping

O=C1OC2(c3cc(I)c(O)c(I)c3Oc3c2cc(I)c(O)c3I)c2c(Cl)c(Cl)c(Cl)c(Cl)c21 [RB, 4,5,6,7-tetrachloro-2′,4′,5′,7′-tetraiodofluorescein]
estimated RB in the blood ([1]; assuming 1% bioavailability, intestinal transit 6 hours, blood volume 10 percent of body weight, two treatment groups): 125 to 250 µM | survival / therapeutic activity in words ([1]; two treatment groups): therapeutic activity was observed | effect on onset of disease ([5]; 4 mg/mL ad libitum in drinking water (about 800 mg/kg/day)): arrested onset of disease | estimated concentration of RB in the blood ([5]; mouse, in vivo): 2 to 20 µM | increase in mean survival relative to untreated mice [5, 16]: ~38% | mean survival [5, 16]: 12.3±0.5 weeks | dose tolerated ([6]; delivered IL): 1500 mg | dose tolerated ([6]; delivered IV): 1500 mg | circulatory half-time (t1/2) [7]: about 30 minutes | dose well tolerated [8]: 970 mg/kg/day | morbidity after IV bolus [9]: not reported to yield morbidity | pKa value [10]: 2.52 | pKa value ([10]; second value): 1.81 | time until acute tumor cytotoxicity is evident [11]: ≤ 30 min | concentrations demonstrating cytotoxicity [12]: 50 to 100 µM

CC[C@H](C)[C@@H]([C@@H](CC(=O)N1CCC[C@H]1[C@H](OC)[C@@H](C)C(=O)N[C@H](C)[C@@H](O)c1ccccc1)OC)N(C)C(=O)[C@@H](NC(=O)[C@@H](NC)C(C)C)C(C)C [monomethyl auristatin] (H-[NMeV]V[Dil][Dolaproine]-X1)
IC50 [13]: < 1 nM

Calicheamicin
LD50 [14]: 0.32 mg/kg

ipilimumab: anti-CTLA-4 monoclonal antibody, immune checkpoint inhibitor
terminal t1/2 [15]: 15.4 days
